Two compounds from BindingDB's records for doi:10.1021/jm0506165 (Universita Di Napoli Federico Ii, 2006) can be followed below.

Some results are limits rather than exact numbers.

What is called IC50 is the concentration at which inhibition is half-maximal.

In the assay the target is Protein farnesyltransferase/geranylgeranyltransferase type-1 subunit alpha (Bos taurus, UniProt P29702). As to the kind of experiment: PFT IC50 Determination. The note with it: pH 7.5; 37 °C. As to the method:
Assays for PFT activity were performed with a PFT-specific scintillation assay (SPA) kit (Amersham Biosciences, Piscataway, NJ). IC50 values were calculated using linear regression analysis of the plots of [3H] farnesyl pyrophosphate (FPP) prenylation versus concentration of compounds.

As for `CSCC[C@H](NC(=O)[C@H](Cc1ccc(O)c(C)c1C)NC(=O)[C@@H](NC(=O)[C@@H](N)CS)C(C)C)C(=O)O` [(2S)-2-[(2S)-2-[(2S)-2-[(2R)-2-amino-3-sulfanylpropanamido]-3-methylbutanamido]-3-(4-hydroxy-2,3-dimethylphenyl)propanamido]-4-(methylsulfanyl)butanoic acid], inhibition was half-maximal at 100 nM (IC50).
Turning to `CSCC[C@H](NC(=O)[C@@H](Cc1ccc(O)c(C)c1C)NC(=O)[C@@H](NC(=O)[C@H](CS)NC=O)C(C)C)C(=O)O` [Cmpound XI], the 50% inhibitory concentration (IC50) was > 100000 nM.
